Results reported in patent US7060444B1, “Zone 3 necrosis associated markers and method of use thereof” (CuraGen Corporation, priority 2002, dated 2006).
Where two headings read alike, the source gives them in different places.

Experiments:
rat livers [1] = tested on: rat livers
Excerpt: (§1) Each compound was delivered orally on a daily basis at a high dose (tox dose) and a 1/10 low dose (mode dose) for up to 14 days. Five male rats/dose/time were randomly assigned to sacrifice on days 1, 3, 7, and 14.
(§2) In order to construct in vivo models, the pathology of each sample had to be determined. Pathology was assigned to each liver sample by the pathologists at Bayer's Stillwell, Kans. facility. Criteria for inclusion of a compound into a particular mode included the following: • i.

liver [2] = conditions: once converted to reactive metabolites; cited from earlier work
rat livers [3] = assay: Induction of Zone 3 Necrosis in vivo, liver pathology annotation; conditions: for Zone 3 Necrosis in vivo: Pathology Present: sampled 1, 3, 7, 14 d
Excerpt: as §1, §2

liver [4] = assay: In vivo pathology annotation: Hypertrophy; parameters: species or system rat; conditions: in vivo compound annotation
Excerpt: Hypertrophy: Increase in cell size and liver weight. • iv. […] Steatosis: Increase in lipid accumulation or “vacuolar degeneration.” • vii. […] Two approaches were used.

liver [5] = conditions: rats, through a sequence of events that begin with necrosis; cited from earlier work
[6] = rat primary hepatocytes, 250 microM
[7] = rat primary hepatocytes, 100 microM
[8] = rat primary hepatocytes, 40 microM
[9] = rat primary hepatocytes, 20 microM
[10] = rat primary hepatocytes, 1000 microM
[11] = rat primary hepatocytes, 2 microM
[12] = rat primary hepatocytes, 50 microM

For `Brc1cccc(Br)c1` [1,3-Dibromobenzene], the “Zone 3 Necrosis in vivo: Pathology Present” value (rat livers [1]; male) was 1 d and the “Zone 3 Necrosis Pathology” value (Rat primary hepatocytes; [6]) was “Present”.
In the case of `Clc1ccc(Cl)cc1` [1,4-dichlorobenzene], the “Zone 3 Necrosis Pathology” value (Rat primary hepatocytes; [7]) is reported as “Absent”.
In the case of `Cc1cc(N=Nc2ccccc2)ccc1N(C)C` [3-methyl-4-(dimethylamino)azobenzene], the “Zone 3 Necrosis Pathology” value (Rat primary hepatocytes; rat primary hepatocytes, 1.6 microM) is reported as “Absent”.
In the case of `Cc1ccc2cc3c(ccc4ccccc43)c3c2c1CC3` [3-methylcholanthrene], the “Zone 3 Necrosis Pathology” value (Rat primary hepatocytes; [8]) is reported as “Absent”.
For `CC(=O)Nc1ccc(O)cc1` [Acetaminophen], the “zonal necrosis of the liver produced” value (liver [2]) is listed as “produce mainly zone 3 necrosis”.
In the case of `CC(=O)Oc1ccccc1C(=O)O` [Aspirin], the “Zone 3 Necrosis Pathology” value (Rat primary hepatocytes; rat primary hepatocytes, 55.5 microM) is reported as “Absent”.
For `[N-]=[N+]=CC(=O)OC[C@H](N)C(=O)O` [Azaserine], the “Zone 3 Necrosis Pathology” value (Rat primary hepatocytes; rat primary hepatocytes, 500 microM) was “Present” and the “Zone 3 Necrosis in vivo: Pathology Present” value (rat livers [3]; High 100 mg/kg (ip)) was 1,3 d.
For `CC[N+](C)(C)Cc1ccccc1Br` [Bretylium], the “Zone 3 Necrosis Pathology” value (Rat primary hepatocytes) was “Absent”.
For `Brc1ccccc1` [Bromobenzene], the “Zone 3 Necrosis in vivo: Pathology Present” value (rat livers [1]; male) was 12, 48 h and the “Zone 3 Necrosis Pathology” value (Rat primary hepatocytes; rat primary hepatocytes, 3000 microM) was “Present”.
For `ClC(Cl)(Cl)Cl` [CCl4, carbon tetrachloride], the “zonal necrosis of the liver produced” value (liver [2]) is listed as “produce mainly zone 3 necrosis”.
In the case of `CO/N=C(\C(=O)N[C@@H]1C(=O)N2C(C(=O)O)=C(COC(N)=O)CS[C@H]12)c1ccco1` [Cefuroxime], the “Zone 3 Necrosis Pathology” value (Rat primary hepatocytes; rat primary hepatocytes, 224 microM) is reported as “Absent”.
With `[Ce+3].[Cl-].[Cl-].[Cl-]` [Cerium (III) Chloride] the “Zone 3 Necrosis Pathology” value (Rat primary hepatocytes; [9]) was “Present”.
With `ClC1=C(Cl)C2(Cl)C3C(Cl)C(Cl)CC3C1(Cl)C2(Cl)Cl` (stereo not shown) [Chlordane] the “Zone 3 Necrosis Pathology” value (Rat primary hepatocytes; rat primary hepatocytes, 8 microM) was “Absent”.
For `CCOC(=O)C(C)(C)Oc1ccc(Cl)cc1` [Clofibrate], the hypertrophy in vivo (liver [4]) was “produced hypertrophy in vivo” and the “Zone 3 Necrosis Pathology” value (Rat primary hepatocytes; [7]) was “Absent”.
In the case of `Clc1cccc(Cl)c1N=C1NCCN1` [Clonidine], the “Zone 3 Necrosis Pathology” value (Rat primary hepatocytes) is reported as “Absent”.
With `O=c1ccc2ccccc2o1` [Coumarin] the “Zone 3 Necrosis Pathology” value (Rat primary hepatocytes; [6]) was “Present” and the “Zone 3 Necrosis in vivo: Pathology Present” value (rat livers [3]; High 150 mg/kg/d) was 3 d.
With `C[C@@H]1C[C@H]2[C@@H]3CCC4=CC(=O)C=C[C@]4(C)[C@@]3(F)[C@@H](O)C[C@]2(C)[C@@]1(O)C(=O)CO` [Dexamethasone] the “Zone 3 Necrosis Pathology” value (Rat primary hepatocytes) was “Absent”.
In the case of `CCN(CC)N=O` [Diethylnitrosamine], the “Zone 3 Necrosis in vivo: Pathology Present” value (rat livers [1]) is listed as 1, 3, 7 d, the “Zone 3 Necrosis Pathology” value (Rat primary hepatocytes; rat primary hepatocytes, 300 microM) is listed as “Present” and the hepatocellular carcinoma (liver [5]) is listed as “show evidence of producing hepatocellular carcinoma in rats”.
In the case of `CN(C)C=O` [Dimethylformamide], the “Zone 3 Necrosis in vivo: Pathology Present” value (rat livers [1]; male) is reported as 48 h and the “Zone 3 Necrosis Pathology” value (Rat primary hepatocytes; rat primary hepatocytes, 5000 microM) is reported as “Present”.
In the case of `CN(C)N=O` [Dimethylnitrosamine], the “Zone 3 Necrosis in vivo: Pathology Present” value (rat livers [1]) is reported as 7, 14 d and the “Zone 3 Necrosis Pathology” value (Rat primary hepatocytes; [10]) is reported as “Present”.
With `c1cc[n+]2c(c1)-c1cccc[n+]1CC2` [Diquat] the “Zone 3 Necrosis in vivo: Pathology Absent” value (rat livers [1]; male) was 6, 12, 24, 48 h.
With `CC(C)N(CCC(C(N)=O)(c1ccccc1)c1ccccn1)C(C)C` (stereo not shown) [Disopyramide] the “Zone 3 Necrosis Pathology” value (Rat primary hepatocytes; rat primary hepatocytes, 3 microM) was “Absent”.
In the case of `COc1cccc2c1C(=O)c1c(O)c3c(c(O)c1C2=O)C[C@@](O)(C(=O)CO)C[C@@H]3O[C@H]1C[C@H](N)[C@H](O)[C@H](C)O1` [Doxorubicin], the “Zone 3 Necrosis Pathology” value (Rat primary hepatocytes) is reported as “Absent”.
For `CCC(=O)O[C@H]1[C@H](O[C@@H]2[C@@H](C)[C@H](O[C@H]3C[C@@](C)(OC)[C@@H](O)[C@H](C)O3)[C@@H](C)C(=O)O[C@H](CC)[C@@](C)(O)[C@H](O)[C@@H](C)C(=O)[C@H](C)C[C@@]2(C)O)O[C@H](C)C[C@@H]1N(C)C.CCCCCCCCCCCCOS(=O)(=O)O` [Erythromycin Estolate (EE), Erythromycin Estolate], the “Zone 3 Necrosis Pathology” value (Rat primary hepatocytes; [9]) was “Absent”.
In the case of `CCO` [Ethanol], the “Zone 3 Necrosis Pathology” value (Rat primary hepatocytes) is reported as “Absent”.
For `CCSCC[C@H](N)C(=O)O` [Ethionine], the “Zone 3 Necrosis Pathology” value (Rat primary hepatocytes; [10]) was “Present”.
For `CCC1(C)CC(=O)NC1=O` (stereo not shown) [Ethosuximide], the “Zone 3 Necrosis Pathology” value (Rat primary hepatocytes; [10]) was “Absent”.
With `OC(c1ccc(Cl)cc1)(c1cncnc1)c1ccccc1Cl` (stereo not shown) [Fenarimol] the “Zone 3 Necrosis Pathology” value (Rat primary hepatocytes; [9]) was “Absent”.
For `OC(Cn1cncn1)(Cn1cncn1)c1ccc(F)cc1F` [Fluconazole], the “Zone 3 Necrosis Pathology” value (Rat primary hepatocytes) was “Absent”.
For `CCCC[C@@H](C)[C@@H](OC(=O)C[C@@H](CC(=O)O)C(=O)O)[C@H](C[C@@H](C)C[C@H](O)CCCC[C@@H](O)C[C@H](O)[C@H](C)N)OC(=O)C[C@@H](CC(=O)O)C(=O)O` [Fumonisin B(1)], the hepatocellular carcinoma (liver [5]) is listed as “show evidence of producing hepatocellular carcinoma in rats”.
For `NCC1(CC(=O)O)CCCCC1` [Gabapentin], the “Zone 3 Necrosis Pathology” value (Rat primary hepatocytes; [11]) was “Absent”.
In the case of `CC(C)Cc1ccc(C(C)C(=O)O)cc1` (stereo not shown) [Ibuprofen], the “Zone 3 Necrosis Pathology” value (Rat primary hepatocytes; [12]) is reported as “Absent”.
For `CC(=O)N1CCN(c2ccc(OCC3COC(Cn4ccnc4)(c4ccc(Cl)cc4Cl)O3)cc2)CC1` (stereo not shown) [Ketoconazole], the “Zone 3 Necrosis Pathology” value (Rat primary hepatocytes; [11]) was “Absent” and the “Zone 3 Necrosis in vivo: Pathology Absent” value (rat livers [3]; male, liver, oral, 10 mg/kg/d) was 1, 3 d.
With `CCC1(c2ccccc2)NC(=O)N(C)C1=O` (stereo not shown) [Mephenytoin] the “Zone 3 Necrosis Pathology” value (Rat primary hepatocytes; rat primary hepatocytes, 14.2 microM) was “Absent”.
For `Nc1cc(N2CCCCC2)nc(N)[n+]1[O-]` [Minoxidil], the “Zone 3 Necrosis Pathology” value (Rat primary hepatocytes; rat primary hepatocytes, 0.166 microM) was “Absent”.
With `ClC1(Cl)C2(Cl)C3(Cl)C4(Cl)C(Cl)(Cl)C5(Cl)C3(Cl)C1(Cl)C5(Cl)C24Cl` (stereo not shown) [Mirex] the “Zone 3 Necrosis Pathology” value (Rat primary hepatocytes; [12]) was “Absent”.
For `[Mo]` [Molybdenum], the “Zone 3 Necrosis Pathology” value (Rat primary hepatocytes; [12]) was “Present” and the “Zone 3 Necrosis in vivo: Pathology Present” value (rat livers [3]; High 500 mg/kg/d) was 3 d.
For `C[C@H]1C(=O)O[C@@H]2CCN3CC=C(COC(=O)[C@](C)(O)[C@]1(C)O)[C@H]23` [Monocrotaline], the “Zone 3 Necrosis Pathology” value (Rat primary hepatocytes; [7]) was “Present”.
For `O=NN1CCCCC1` [N-Nitrosopiperidine], the “Zone 3 Necrosis Pathology” value (Rat primary hepatocytes; rat primary hepatocytes, 3200 microM) was “Present”.
With `CCCCN(CCCC)N=O` [N-nitrosodibutylamine] the “Zone 3 Necrosis Pathology” value (Rat primary hepatocytes; rat primary hepatocytes, 200 microM) was “Absent”.
In the case of `O=NN1CCOCC1` [N-nitrosomorpholine], the “Zone 3 Necrosis Pathology” value (Rat primary hepatocytes; rat primary hepatocytes, 3750 microM) is reported as “Present”.
For `O=NN(CCO)CCO` [Nitrosodiethanolamine], the “Zone 3 Necrosis Pathology” value (Rat primary hepatocytes; [10]) was “Absent”.
With `Oc1c(Cl)c(Cl)c(Cl)c(Cl)c1Cl` [Pentachlorophenol] the “Zone 3 Necrosis Pathology” value (Rat primary hepatocytes; rat primary hepatocytes, 19 microM) was “Absent”.
In the case of `COc1cc2nc(N3CCN(C(=O)c4ccco4)CC3)nc(N)c2cc1OC` [Prazosin], the “Zone 3 Necrosis Pathology” value (Rat primary hepatocytes) is reported as “Absent”.
In the case of `CC(=O)[C@H]1CC[C@H]2[C@@H]3CC=C4C[C@@H](O)CC[C@]4(C)[C@H]3CC[C@]12C` [Pregnenolone], the “Zone 3 Necrosis Pathology” value (Rat primary hepatocytes; rat primary hepatocytes, 38 microM) is reported as “Absent”.
In the case of `c1ccncc1` [Pyridine], the “Zone 3 Necrosis in vivo: Pathology Present” value (rat livers [1]; male) is reported as 14 d and the “Zone 3 Necrosis Pathology” value (Rat primary hepatocytes) is reported as “Present”.
In the case of `CO[C@H]1/C=C/O[C@@]2(C)Oc3c(C)c(O)c4c(O)c(c(/C=N/N5CCN(C)CC5)c(O)c4c3C2=O)NC(=O)/C(C)=C\C=C\[C@H](C)[C@H](O)[C@@H](C)[C@@H](O)[C@@H](C)[C@H](OC(C)=O)[C@@H]1C` [Rifampicin], the “Zone 3 Necrosis Pathology” value (Rat primary hepatocytes) is reported as “Absent”.
For `CC(=N)S` [Thioacetamide], the “Zone 3 Necrosis Pathology” value (Rat primary hepatocytes; rat primary hepatocytes, 2000 microM) was “Present”.
For `NC(=S)c1ccccc1` [Thiobenzamide], the “Zone 3 Necrosis Pathology” value (Rat primary hepatocytes; [8]) was “Present”.
